{"source": "patent US4472404A", "about": "“8-Quinolinyl carbamates and their use as urinary tract antimicrobials” (priority 1982, dated 1984)", "format_in_all_cases": "cell-based", "key": {"[1]": {"tested_on": "Proteus mirabilis 470/1", "assay": "Minimum inhibitory concentration, urinary tract organisms (Example 13)", "experimental": "(§1) The test compound was added to molten agar as a solution (when conveniently soluble in a solvent such as dimethylformamide) or a suspension forming a mixture having a concentration of 0.05 percent (500 ppm). The mixture was stirred and poured into plates to harden. When hardened, the plates were inoculated with various bacteria and fungi. The bacteria-inoculated plates were incubated at 37° C. for 24 hours, while the fungi-inoculated plates were incubated for about 72-120 hours. Following incubation, the plates were examined for growth or inhibition of the respective organisms.\n(§2) After the initial readings, compounds showing sufficient activity were re-tested at various concentrations to determine the minimum inhibitory concentration (in ppm) of the compounds of the invention against the various bacteria and fungi tested.\n(§3) Following a procedure substantially the same as that described in Example 12, the minimum inhibitory concentration for the compounds described herein was determined for various organisms representative of those commonly associated with urinary tract infections.\n(§4) The organisms used in this procedure and the abbreviations designated in Table 3 are as follows: […]"}, "[2]": {"tested_on": "Enterobacter aerogenes ATCC 13048", "assay": "Minimum inhibitory concentration, urinary tract organisms (Example 13)", "conditions": "Klebsiella aerogenes", "experimental": "as §1, §2, §3, §4"}, "[3]": {"tested_on": "Escherichia coli ATCC 25922", "assay": "Minimum inhibitory concentration, urinary tract organisms (Example 13)", "experimental": "as §1, §2, §3, §4"}, "[4]": {"tested_on": "Escherichia coli ATCC 9723", "assay": "Minimum inhibitory concentration, urinary tract organisms (Example 13)", "experimental": "as §1, §2, §3, §4"}, "[5]": {"tested_on": "Pseudomonas aeruginosa ATCC 27853", "assay": "Minimum inhibitory concentration, urinary tract organisms (Example 13)", "experimental": "as §1, §2, §3, §4"}, "[6]": {"tested_on": "Serratia marcescens M-1", "assay": "Minimum inhibitory concentration, urinary tract organisms (Example 13)", "experimental": "as §1, §2, §3, §4"}, "[7]": {"tested_on": "Staphylococcus aureus ATCC 25923", "assay": "Minimum inhibitory concentration, urinary tract organisms (Example 13)", "experimental": "as §1, §2, §3, §4"}, "[8]": {"tested_on": "Klebsiella pneumoniae M-2", "assay": "Minimum inhibitory concentration, urinary tract organisms (Example 13)", "experimental": "as §1, §2, §3, §4"}, "[9]": {"tested_on": "Klebsiella pneumoniae M-6", "assay": "Minimum inhibitory concentration, urinary tract organisms (Example 13)", "experimental": "as §1, §2, §3, §4"}, "[10]": {"tested_on": "Klebsiella pneumoniae ATCC 23357", "assay": "Minimum inhibitory concentration, urinary tract organisms (Example 13)", "experimental": "as §1, §2, §3, §4"}, "[11]": {"tested_on": "Escherichia coli ATCC 4157", "assay": "Minimum inhibitory concentration, urinary tract organisms (Example 13)", "experimental": "as §1, §2, §3, §4"}, "[12]": {"tested_on": "Escherichia coli ATCC 11229", "assay": "Minimum inhibitory concentration, urinary tract organisms (Example 13)", "experimental": "as §1, §2, §3, §4"}, "[13]": {"tested_on": "Pseudomonas aeruginosa ATCC 10145", "assay": "Minimum inhibitory concentration, urinary tract organisms (Example 13)", "experimental": "as §1, §2, §3, §4"}, "[14]": {"tested_on": "Pseudomonas aeruginosa PRD-10", "assay": "Minimum inhibitory concentration, urinary tract organisms (Example 13)", "experimental": "as §1, §2, §3, §4"}, "[15]": {"tested_on": "Pseudomonas aeruginosa ATCC 7700", "assay": "Minimum inhibitory concentration, urinary tract organisms (Example 13)", "experimental": "as §1, §2, §3, §4"}, "[16]": {"tested_on": "Klebsiella pneumoniae M-1", "assay": "Minimum inhibitory concentration, urinary tract organisms (Example 13)", "experimental": "as §1, §2, §3, §4"}, "[17]": {"tested_on": "Ceratocystis ips", "assay": "Agar-plate minimum inhibitory concentration (Example 12)", "conditions": "read-out: Minimum Inhibitory Concentration", "experimental": "as §1, §2"}, "[18]": {"tested_on": "Candida pelliculosa", "assay": "Agar-plate minimum inhibitory concentration (Example 12)", "conditions": "Hansenula anomala, read-out: Minimum Inhibitory Concentration", "experimental": "as §1, §2"}, "[19]": {"tested_on": "Candida albicans", "assay": "Agar-plate minimum inhibitory concentration (Example 12)", "conditions": "read-out: Minimum Inhibitory Concentration", "experimental": "as §1, §2"}, "[20]": {"tested_on": "Aspergillus niger", "assay": "Agar-plate minimum inhibitory concentration (Example 12)", "conditions": "read-out: Minimum Inhibitory Concentration", "experimental": "as §1, §2"}, "[21]": {"tested_on": "Bacillus subtilis", "assay": "Agar-plate minimum inhibitory concentration (Example 12)", "conditions": "read-out: Minimum Inhibitory Concentration", "experimental": "as §1, §2"}, "[22]": {"tested_on": "Trichophyton mentagrophytes", "assay": "Agar-plate minimum inhibitory concentration (Example 12)", "conditions": "read-out: Minimum Inhibitory Concentration", "experimental": "as §1, §2"}, "[23]": {"tested_on": "Streptococcus mutans", "assay": "Agar-plate minimum inhibitory concentration (Example 12)", "conditions": "read-out: Minimum Inhibitory Concentration", "experimental": "as §1, §2"}, "[24]": {"tested_on": "Salmonella typhosa", "assay": "Agar-plate minimum inhibitory concentration (Example 12)", "conditions": "Salmonella enterica, read-out: Minimum Inhibitory Concentration", "experimental": "as §1, §2"}, "[25]": {"conditions": "M1, read-out: Minimum Inhibitory Concentration"}}, "note": "Where two headings read alike, the source gives them in different places.", "data": [{"smiles": "CCOC(=O)CNC(=O)Oc1ccc(Cl)c2cccnc12.Cl", "note": "[Example 8, Ethyl N-(((5-chloro-8-quinolinyl)oxy)carbonyl)glycinate hydrochloride salt]", "values": [{"measurement": "MIC", "setting": "[1]; Pm 470/1, read-out: Minimum Inhibitory Concentration", "value": 50, "unit": "µg/mL"}, {"measurement": "MIC", "setting": "[2]; ATCC13048, Ea 13048, read-out: Minimum Inhibitory Concentration", "value": 50, "unit": "µg/mL"}, {"measurement": "MIC", "setting": "[3]; ATCC25922, Ec 25922, read-out: Minimum Inhibitory Concentration", "value": 25, "unit": "µg/mL"}, {"measurement": "MIC", "setting": "[4]; ATCC9723, Ec 9723, read-out: Minimum Inhibitory Concentration", "value": 25, "unit": "µg/mL"}, {"measurement": "MIC", "setting": "[5]; ATCC27853, Pa 27853, read-out: Minimum Inhibitory Concentration", "value": 100, "unit": "µg/mL"}, {"measurement": "MIC", "setting": "[6]; M1, Sr M-1, read-out: Minimum Inhibitory Concentration", "value": 75, "unit": "µg/mL"}, {"measurement": "MIC", "setting": "[7]; ATCC25923, Sa 25923, read-out: Minimum Inhibitory Concentration", "value": 10, "unit": "µg/mL"}, {"measurement": "MIC", "setting": "[8]; M2, Kp M-2, read-out: Minimum Inhibitory Concentration", "value": 50, "unit": "µg/mL"}, {"measurement": "MIC", "setting": "[9]; M6, Kp M-6, read-out: Minimum Inhibitory Concentration", "value": 25, "unit": "µg/mL"}, {"measurement": "MIC", "setting": "[10]; ATCC23357, Kp 23357, read-out: Minimum Inhibitory Concentration", "value": 50, "unit": "µg/mL"}, {"measurement": "MIC", "setting": "[11]; ATCC4157, Ec 4157, read-out: Minimum Inhibitory Concentration", "value": 25, "unit": "µg/mL"}, {"measurement": "MIC", "setting": "[12]; ATCC11229, Ec 11229, read-out: Minimum Inhibitory Concentration", "value": 25, "unit": "µg/mL"}, {"measurement": "MIC", "setting": "[13]; ATCC10145, Pa 10145, read-out: Minimum Inhibitory Concentration", "value": 75, "unit": "µg/mL"}, {"measurement": "MIC", "setting": "[14]; PRD10, Pa PRD-10, read-out: Minimum Inhibitory Concentration", "value": 100, "unit": "µg/mL"}, {"measurement": "MIC", "setting": "[15]; ATCC7700, Pa 7700, read-out: Minimum Inhibitory Concentration", "value": 100, "unit": "µg/mL"}, {"measurement": "MIC", "setting": "[16]; M1, Kp M-1, read-out: Minimum Inhibitory Concentration", "value": 50, "unit": "µg/mL"}, {"measurement": "MIC", "setting": "[17]; Ceratocystis ips, agar, 72-120 hours", "value": 50, "unit": "µg/mL"}, {"measurement": "MIC", "setting": "[18]; Candida pelliculosa, agar, 72-120 hours", "value": 10, "unit": "µg/mL"}, {"measurement": "MIC", "setting": "[19]; agar, 72-120 hours", "value": 10, "unit": "µg/mL"}, {"measurement": "MIC", "setting": "[20]; agar, 72-120 hours", "value": 10, "unit": "µg/mL"}, {"measurement": "MIC", "setting": "[21]; agar, 37° C., 24 hours", "value": 1, "unit": "µg/mL"}, {"measurement": "MIC", "setting": "[22]; agar, 72-120 hours", "value": 10, "unit": "µg/mL"}, {"measurement": "MIC", "setting": "[23]; agar, 37° C., 24 hours", "value": "> 500", "unit": "µg/mL"}, {"measurement": "MIC", "setting": "[24]; Salmonella typhosa, agar, 37° C., 24 hours", "value": 50, "unit": "µg/mL"}]}, {"smiles": "CNC(=O)Oc1c(Cl)cc(Cl)c2cccnc12", "note": "[Example 10, 5,7-Dichloro-8quinolinyl N-methylcarbamate]", "values": [{"measurement": "MIC", "setting": "[1]; 470/1, read-out: Minimum Inhibitory Concentration", "value": 10, "unit": "µg/mL"}, {"measurement": "MIC", "setting": "[2]; ATCC13048, read-out: Minimum Inhibitory Concentration", "value": 25, "unit": "µg/mL"}, {"measurement": "MIC", "setting": "[3]; ATCC25922, read-out: Minimum Inhibitory Concentration", "value": 10, "unit": "µg/mL"}, {"measurement": "MIC", "setting": "[4]; ATCC9723, read-out: Minimum Inhibitory Concentration", "value": 10, "unit": "µg/mL"}, {"measurement": "MIC", "setting": "[5]; ATCC27853, read-out: Minimum Inhibitory Concentration", "value": 50, "unit": "µg/mL"}, {"measurement": "MIC", "setting": "[6]; [25]", "value": 25, "unit": "µg/mL"}, {"measurement": "MIC", "setting": "[7]; ATCC25923, read-out: Minimum Inhibitory Concentration", "value": "< 5", "unit": "µg/mL"}, {"measurement": "MIC", "setting": "[8]; M2, read-out: Minimum Inhibitory Concentration", "value": 25, "unit": "µg/mL"}, {"measurement": "MIC", "setting": "[9]; M6, read-out: Minimum Inhibitory Concentration", "value": 25, "unit": "µg/mL"}, {"measurement": "MIC", "setting": "[10]; ATCC23357, read-out: Minimum Inhibitory Concentration", "value": 10, "unit": "µg/mL"}, {"measurement": "MIC", "setting": "[11]; ATCC4157, read-out: Minimum Inhibitory Concentration", "value": 10, "unit": "µg/mL"}, {"measurement": "MIC", "setting": "[12]; ATCC11229, read-out: Minimum Inhibitory Concentration", "value": 10, "unit": "µg/mL"}, {"measurement": "MIC", "setting": "[13]; ATCC10145, read-out: Minimum Inhibitory Concentration", "value": 10, "unit": "µg/mL"}, {"measurement": "MIC", "setting": "[14]; PRD10, read-out: Minimum Inhibitory Concentration", "value": 25, "unit": "µg/mL"}, {"measurement": "MIC", "setting": "[15]; ATCC7700, read-out: Minimum Inhibitory Concentration", "value": 50, "unit": "µg/mL"}, {"measurement": "MIC", "setting": "[16]; [25]", "value": 25, "unit": "µg/mL"}, {"measurement": "MIC", "setting": "[17]", "value": 50, "unit": "µg/mL"}, {"measurement": "MIC", "setting": "[18]", "value": 5, "unit": "µg/mL"}, {"measurement": "MIC", "setting": "[19]", "value": 5, "unit": "µg/mL"}, {"measurement": "MIC", "setting": "[20]", "value": 10, "unit": "µg/mL"}, {"measurement": "MIC", "setting": "[21]; 24 h", "value": 0.5, "unit": "µg/mL"}, {"measurement": "MIC", "setting": "[22]", "value": 50, "unit": "µg/mL"}, {"measurement": "MIC", "setting": "[23]; 24 h", "value": 10, "unit": "µg/mL"}, {"measurement": "MIC", "setting": "[24]; TYPHOSA, 24 h", "value": 10, "unit": "µg/mL"}]}]}
